Reference: patent US20050159599A1, “Cyclic compound, process for producing the same, and pest control agent” (priority 2002, published 2005)

Experiments:
Format in all cases: in vivo
Plutella xylostella [1] = assay: Insecticidal effect for Plutella xylostella by immersion treatment of host crop root (Test Example 3); details: 25 ppm, cabbage root immersed 5 days, ten second-instar larvae on stem and leaves, counted on the fifth day, 24° C.; for pest or weed control at 25 ppm: Plutella xylostella, 120 h, read-out: rate of dead pests (%)
Procedure: Insecticidal Effect for Plutella xylostella by Immersion Treatment of Host Crop Root
Roots of 4-leave stage cabbage was washed with tap water to remove soil, and then immersed in a pesticidal solution which was prepared by dissolving 5 mg of test compound (represented by the compound Nos. in the above Examples) in 0.5 ml of acetone containing Tween 20 (trade name) and then diluting it to the prescribed concentration (25 ppm) with ion-exchange water, and which was filled in a light-shielded Erlenmeyer flask (100 ml). On the fifth day after immersion of root, the root was cut off, and the stem and leaves were put into an ice cream cup (180 ml). Ten second-instar larvae of Plutella xylostella were set free therein, and the cup was left in a temperature-controlled breeding room (24° C.). On the fifth day after, the number of surviving Plutella xylostella was examined. The rate of dead pests was calculated by the following formula. rate of dead pests (%)=(number of dead pests/number of test pests)×100

Spodoptera litura [2] = assay: Insecticidal effect for Spodoptera litura by spraying treatment to host crop (Test Example 2); details: 100 ppm, sprayed on soybean, third-instar larvae of Spodoptera litura, fifth day after; for pest or weed control at 100 ppm: 120 h, read-out: rate of dead pests (%)
Outline: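 Soybean plants with fully developed primary leaves sprayed to runoff with 100 ppm compound (acetone/Tween 20, sticker water). Dried leaves given to ten third-instar larvae at 25° C.; survivors counted on day 5, mortality as dead/tested × 100.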

Plutella xylostella [3] = assay: Insecticidal effect for Plutella xylostella by immersion treatment of host crop (Test Example 1); details: cabbage leaf dipped, second-instar larvae of Plutella xylostella, fifth day after; for pest or weed control at 100 ppm: foliar, 120 h, read-out: rate of dead pests (%); for rate of dead pests (%): 100 ppm
Procedure: Insecticidal Effect for Plutella xylostella by Immersion Treatment of Host Crop One true leaf of 7 to 8-leave stage cabbage was cut off and dipped in a pesticidal solution for a few seconds, which was prepared by dissolving 5 mg of test compound (represented by the compound Nos. in the above Examples) in 0.5 ml of acetone containing Tween 20 (trade name) and then diluting it to the prescribed concentration (100 ppm) with Dain (trade name, sticker) water diluted 5000-fold. After drying the pesticidal solution, the leaf was put into an ice cream cup (180 ml), and ten second-instar larvae of Plutella xylostella were set free therein. The cup was left in a temperature-controlled breeding room (24° C.). On the fifth day after, the number of surviving Plutella xylostella was examined. The rate of dead pests was calculated by the following formula. rate of dead pests (%)=(number of dead pests/number of test pests)×100

Spodoptera litura [4] = assay: Insecticidal effect for Spodoptera litura by immersion treatment of host crop root (Test Example 4); details: 25 ppm, soybean root immersion 5 days, second-instar larvae of Spodoptera litura, fifth day after; for pest or weed control at 25 ppm: 120 h, read-out: rate of dead pests (%)
Outline: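 Soil was washed from the roots of soybean plants at the primary-leaf stage, and the roots were immersed in a pesticidal solution held in a light-shielded 100 ml Erlenmeyer flask. The solution was made from acetone containing Tween 20, diluted with ion-exchange water. Five days after root immersion, two primary leaves were cut and placed in a 180 ml cup with ten second-instar Spodoptera litura larvae, then kept at 25° C. Survivors were counted five days later. The rate of dead pests (%) was calculated as dead pests divided by test pests, times 100.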

Tetranychus urticae = assay: Acaricidal effect for Tetranychus urticae (Test Example 5); details: 100 ppm (table); spray on kidney bean with ten female imagoes; survivors counted on second and seventh day, 25° C.
Procedure: Acaricidal Effect for Tetranychus urticae
Ten female imagoes Tetranychus urticae were set free on a kidney bean wherein primary leaves had just developed. On the following day, a pesticidal solution, which was prepared by dissolving 5 mg of test compound (represented by the compound Nos. in the above Examples) in 0.5 ml of acetone containing Tween 20 ([…]) with Dain (trade name, sticker) water diluted 5000-fold, was sprayed with spray gun in the amounts wherein the pesticidal solution dripped. The kidney bean was left in a temperature-controlled breeding room (25° C.). On the second and seventh day after treatment, the number of surviving Tetranychus urticae was examined. The rate of decrease was calculated by the following formula. rate of decrease (%)=(1−(S2/(5.59×(10+(10+S1)/2+S1))))×100 In the above formula, • S1; the number of surviving imagoes on the second day after • S2; the number of surviving pests on the seventh day after […]

Row | Compound | pest or weed control at 25 ppm (Plutella xylostella [1]) | pest or weed control at 100 ppm (Spodoptera litura [2]) | pest or weed control at 100 ppm (Plutella xylostella [3]) | pest or weed control at 25 ppm (Spodoptera litura [4]) | rate of dead pests (%) (Plutella xylostella [1]) | rate of dead pests (%) (Spodoptera litura [2]) | rate of dead pests (%) (Plutella xylostella [3]) | rate of dead pests (%) (Spodoptera litura [4]) | rate of decrease (%) (Tetranychus urticae)
1 | O=C(c1c(F)cccc1F)N1COCN(c2ccc(SC(F)F)cc2F)C1=O [I-41, 3-(2,6-difluorobenzoyl)-5-[4-(difluoromethylthio)-2-fluorophenyl]tetrahydro-4H-1,3,5-oxadiazin-4-one] | 100% | 100% | 100% | 100% |  |  |  |  | 
2 | CSc1ccc(N2COCN(C(=O)c3c(F)cccc3Cl)C2=O)c(F)c1 [I-205] |  |  |  |  | 90% | 100% | 100% | 100% | 
3 | O=C(c1c(F)cccc1Cl)N1COCN(c2ccc([S+]([O-])C(F)(F)F)cc2F)C1=O (stereo not shown) [I-222] |  |  |  |  | 100% | 100% | 100% | 100% | 
4 | CN1CN(C(=O)c2c(F)cccc2F)C(=O)N(c2ccc(Oc3ccc(C(F)(F)F)cc3Cl)cc2F)C1 [III-21] |  |  |  |  |  | 100% |  |  | 99%
5 | C=CCN1CN(C(=O)c2c(F)cccc2F)C(=O)N(c2ccc(Oc3ccc(C(F)(F)F)cc3Cl)cc2F)C1 [III-24] |  |  |  |  |  | 100% | 100% |  | 95%
6 | CC(C)N1CN(C(=O)c2c(F)cccc2F)C(=O)N(c2ccc(Oc3ccc(C(F)(F)F)cc3Cl)cc2F)C1 [III-25] |  |  |  |  |  | 100% | 100% |  | 97%
7 | O=C(c1c(F)cccc1F)N1CNCN(c2ccc(Oc3ccc(C(F)(F)F)cc3Cl)cc2F)C1=O [III-27, 1-[4-(2-chloro-4-trifluoromethylphenoxy)-2-fluorophenyl]-3-(2,6-difluorobenzoyl)tetrahydro-1,3,5-triazin-2(1H)-one] |  | 100% | 100% |  |  |  |  |  | 96%
8 | COC(=O)SN1CN(C(=O)c2c(F)cccc2F)C(=O)N(c2ccc(Oc3ccc(C(F)(F)F)cc3Cl)cc2F)C1 [III-31] |  |  |  |  |  | 100% | 100% |  | 99%
9 | O=C(c1c(F)cccc1F)N1CN(S(=O)(=O)C(F)(F)F)CN(c2ccc(Oc3ccc(C(F)(F)F)cc3Cl)cc2F)C1=O [III-35] |  |  |  |  |  | 100% |  |  | 97%
10 | COC(=O)C(=O)N1CN(C(=O)c2c(F)cccc2F)C(=O)N(c2ccc(Oc3ccc(C(F)(F)F)cc3Cl)cc2F)C1 [III-37, Methyl 2-[3-[4-(2-chloro-4-trifluoromethylphenoxy)-2-fluorophenyl]-5-(2,6-difluorobenzoyl)hexahydro-4-oxo-1,3,5-triazin-1-yl]-2-oxoacetate] |  | 100% |  | 95% |  |  |  |  | 97%
11 | O=C(O)C(=O)N1CN(C(=O)c2c(F)cccc2F)C(=O)N(c2ccc(Oc3ccc(C(F)(F)F)cc3Cl)cc2F)C1 [III-38, 2-[3-[4-(2-chloro-4-trifluoromethylphenoxy)-2-fluorophenyl]-5-(2,6-difluorobenzoyl)hexahydro-4-oxo-1,3,5-triazin-1-yl]-2-oxoacetic Acid] | 90% | 100% |  | 100% |  |  |  |  | 98%
12 | O=C(OCc1ccccc1)C(=O)N1CN(C(=O)c2c(F)cccc2F)C(=O)N(c2ccc(Oc3ccc(C(F)(F)F)cc3Cl)cc2F)C1 [III-39, Benzyl 2-[3-[4-(2-chloro-4-trifluoromethylphenoxy)-2-fluorophenyl]-5-(2,6-difluorobenzoyl)hexahydro-4-oxo-1,3,5-triazin-1-yl]-2-oxoacetate] |  | 100% | 100% |  |  |  |  |  | 97%
13 | NC(=O)C(=O)N1CN(C(=O)c2c(F)cccc2F)C(=O)N(c2ccc(Oc3ccc(C(F)(F)F)cc3Cl)cc2F)C1 [III-41] |  |  |  |  |  | 100% | 100% |  | 97%
14 | CNC(=O)C(=O)N1CN(C(=O)c2c(F)cccc2F)C(=O)N(c2ccc(Oc3ccc(C(F)(F)F)cc3Cl)cc2F)C1 [III-42] |  |  |  |  |  | 100% |  |  | 98%
15 | O=C(CBr)N1CN(C(=O)c2c(F)cccc2F)C(=O)N(c2ccc(Oc3ccc(C(F)(F)F)cc3Cl)cc2F)C1 [III-44] |  |  |  |  |  | 100% | 100% |  | 96%
16 | CSCC(=O)N1CN(C(=O)c2c(F)cccc2F)C(=O)N(c2ccc(Oc3ccc(C(F)(F)F)cc3Cl)cc2F)C1 [III-45] |  |  |  |  |  | 100% | 100% |  | 100%
17 | C[S+]([O-])CC(=O)N1CN(C(=O)c2c(F)cccc2F)C(=O)N(c2ccc(Oc3ccc(C(F)(F)F)cc3Cl)cc2F)C1 (stereo not shown) [III-46] |  |  |  |  |  |  |  |  | 97%
18 | CON(C)C(=O)C(=O)N1CN(C(=O)c2c(F)cccc2F)C(=O)N(c2ccc(Oc3ccc(C(F)(F)F)cc3Cl)cc2F)C1 [III-48] |  |  |  |  |  |  | 100% |  | 95%
19 | CONC(=O)C(=O)N1CN(C(=O)c2c(F)cccc2F)C(=O)N(c2ccc(Oc3ccc(C(F)(F)F)cc3Cl)cc2F)C1 [III-49] |  |  |  |  |  | 100% |  | 95% | 96%
20 | CS(=O)(=O)N1CN(C(=O)c2c(F)cccc2F)C(=O)N(c2cc(Cl)c(F)c(Cl)c2F)C1 [III-58] |  |  |  |  | 90% | 100% | 100% | 100% | 
21 | COC(=O)C(=O)N1CN(C(=O)c2c(F)cccc2F)C(=O)N(c2cc(Cl)c(F)c(Cl)c2F)C1 [III-64] |  |  |  |  | 90% | 100% | 100% | 90% | 
22 | CN1CN(C(=O)c2c(F)cccc2F)C(=O)N(c2ccc(SC(F)F)cc2F)C1 [III-148, 1-(2,6-difluorobenzoyl)-3-[4-(difluoromethylthio)-2-fluorophenyl]-5-methyltetrahydro-1,3,5-triazin-2(1H)-one] | 100% | 100% | 100% | 100% |  |  |  |  | 
23 | CC(=O)N1CN(C(=O)c2c(F)cccc2F)C(=O)N(c2ccc(SC(F)F)cc2F)C1 [III-149] |  |  |  |  | 95% | 100% | 100% | 100% | 
24 | CN1CN(C(=O)c2c(F)cccc2F)C(=O)N(c2ccc([S+]([O-])C(F)F)cc2F)C1 (stereo not shown) [III-152, 1-(2,6-difluorobenzoyl)-3-[4-(difluoromethylsulfinyl)-2-fluorophenyl]-5-methyltetrahydro-1,3,5-triazin-2(1H)-one] | 100% | 100% | 100% | 100% |  |  |  |  | 
25 | CC(=O)N1CN(C(=O)c2c(F)cccc2F)C(=O)N(c2ccc([S+]([O-])C(F)F)cc2F)C1 (stereo not shown) [III-153] |  |  |  |  | 100% | 100% | 100% | 100% | 
